These results are taken from US7989176B2, “Treating cancer” (Theryte Ltd., priority 2002, dated 2011).

The subject of series [1] is HCT116 cells. Put plainly: Growth curves of transfected cultures. Type of series: cell-based. The note with it: oligonucleotide 1 μM. The procedure: (§1) Sense and antisense phosphorothionate oligonucleotide with the sequence set out in SEQ1 and SEQ2 respectively were synthesised in a 380B DNA synthesiser. Each oligonucleotide was premixed with lipofectin reagent and diluted in DMEM (Gibco). 6 cm plates of HCT116 cells at 40-50% confluence were rinsed once with 4 ml serum free DMEM and transfected with the oligonucleotides at a final concentration of 1 μM and the lipofectin reagent at a final concentration of 19 μg/ml according to the manufacturer's instructions (Life Technologies Inc., Gaithersburg, Md.). After 4 hours, Foetal Calf Serum (Gibco) was added to a final concentration of 10%. A lipofectin only transfection was performed as a control. Cell extracts were harvested after 48 h and examined by Western blot analysis with a pRb antibody. Equal loading of protein samples was confirmed by Coomassie blue staining or by immunoreactivity with an anti-actin antibody (Sigma). The intensities of the Rb bands were quantised with an image scanner (Molecular Dynamics). […] The treatment with the sense oligonucleotide led to about a 5% reduction in the level of pRb. […] Apoptosis in the cultures 48 h after transfection was tested for using the TUNEL assay. An in situ apoptosis detection kit ApopTag (Oncor, Gaithersburg, Md.) was used as recommended by the manufacturer. […]

The subject of series [2] is pRb. Put plainly: Western blot analysis of pRb expression after oligonucleotide transfection. Type of series: cell-based. The note with it: HCT116 cells, oligonucleotide 1 μM with lipofectin 19 μg/ml, extracts harvested after 48 h. The method, then: as §1
For orientation: A western blot detects proteins with antibodies after separation by electrophoresis.

Series [3] deals with HCT116 cells. Put plainly: TUNEL assay for apoptosis (ApopTag kit). Type of series: cell-based. The note with it: 48 h after transfection. The procedure:
as §1

For series [4], the system named is advanced gastric cancer. The note with it: completed phase II study, patients with advanced gastric cancer (Kaubisch et al. 2000); cited from earlier work.

For “antisense oligonucleotide: antisense phosphorothionate oligonucleotide to Rb, sequence SEQ2: 5′ -GGTTTTGGGCGGCATGAC-3′ (DNA, all phosphorothioate, methylation of C not given here)”, in series [1], the “effect on growth compared with the lipofectin-treated control culture” value was “growth inhibition”. Also, the “level of pRb expression relative to the control culture treated only with lipofectin” value in series [2] is listed as “about 30%”. The same compound had an increase in apoptosis in series [3] (versus lipofectin treated culture) above 10 fold. For the same compound, the “percentage of TUNEL positive cells” value in series [3] (oligonucleotide 1 μM) was 18+/−0.5%.
For the compound `CN1CC[C@H](c2c(O)cc(O)c3c(=O)cc(-c4ccccc4Cl)oc23)[C@H](O)C1` [flavopiridol], the clinical responses entry in series [4] is “no clinical responses were observed”.
